# Experimental data reported in patent US6737383B1, “Herbicidal oxadiazolidines” (priority 1999, dated 2004).
# How the values were obtained:
# bedstraw = test: Test B pre/postemergence bedstraw; type: in vivo, Galium aparine
# Summary of the method: (§1)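 Test chemicals in a non-phytotoxic solvent mixture with surfactant were sprayed preemergence onto planted seeds and postemergence onto plants 2 to 18 cm tall (1- to 4-leaf stage). After twelve to sixteen days in a greenhouse, injury was visually rated against untreated controls from 0 (no effect) to 10 (complete control).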
# blackgrass = test: Test B pre/postemergence blackgrass; type: in vivo, Alopecurus myosuroides
# Summary of the method: as §1
# surinam grass = test: Test B pre/postemergence surinam grass; type: in vivo, Brachiaria decumbens
# Summary of the method: as §1
# corn = test: Test B pre/postemergence corn; type: in vivo, Zea mays
# Summary of the method: as §1
# crabgrass = test: Test B pre/postemergence crabgrass; type: in vivo, Digitaria sanguinalis
# Summary of the method: as §1
# giant foxtail = test: Test B pre/postemergence giant foxtail; type: in vivo, Setaria faberii
# Summary of the method: as §1
# morningglory = test: Test B pre/postemergence morningglory; type: in vivo, Ipomoea hederacea
# Summary of the method: as §1
# pigweed = test: Test B pre/postemergence pigweed; type: in vivo, Amaranthus retroflexus
# Summary of the method: as §1
# soybean = test: Test B pre/postemergence soybean; type: in vivo, Glycine max
# Summary of the method: as §1
# velvetleaf = test: Test B pre/postemergence velvetleaf; type: in vivo, Abutilon theophrasti; conditions: for Plant response rating, Velvetleaf: Rate 250 g/ha
# Summary of the method: as §1
# wheat = test: Test B pre/postemergence wheat; type: in vivo, Triticum aestivum; conditions: for Plant response rating, Wheat: Rate 250 g/ha
# Summary of the method: as §1
# wild oat = test: Test B pre/postemergence wild oat; type: in vivo, Avena fatua; conditions: for Plant response rating, Wild oats: Rate 250 g/ha
# Summary of the method: as §1
# purple nutsedge = test: Test B pre/postemergence purple nutsedge; type: in vivo, Cyperus rotundus
# Summary of the method: as §1
# rice = test: Test B flood test rice; type: in vivo, Oryza sativa
# Summary of the method: (§2)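 Each value is a visual injury score relative to controls, with 10 meaning complete control and 0 no effect. Evaluation took place twelve to sixteen days after the 2-leaf-stage plants were treated and kept in the greenhouse.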
# smallflower flatsedge = test: Test B flood test smallflower flatsedge; type: in vivo, Cyperus difformis
# Summary of the method: as §2
# duck salad = test: Test B flood test duck salad; type: in vivo, Heteranthera limosa
# Summary of the method: as §2
# [1] = Preemergence, Rate 62 g/ha, scale 0 to 10 (0 no effect, 10 complete control)
# [2] = Preemergence, Rate 125 g/ha, scale 0 to 10 (0 no effect, 10 complete control)
# [3] = Preemergence, Rate 250 g/ha, scale of 0 to 10 where 0 is no effect and 10 is complete control
# [4] = Preemergence, Rate 500 g/ha, scale 0 to 10 (0 no effect, 10 complete control)
# [5] = Rate 500 g/ha, Postemergence, scale 0 to 10, 0 no effect, 10 complete control
# [6] = Postemergence, Rate 125 g/ha, scale of 0 to 10 where 0 is no effect and 10 is complete control
# [7] = Postemergence, Rate 250 g/ha, scale 0 to 10, 0 no effect, 10 complete control
# [8] = Rate 62 g/ha, Postemergence, scale of 0 to 10 where 0 is no effect and 10 is complete control
# [9] = Rate 250 g/ha, Postemergence, scale 0 to 10, 0 is no effect, 10 is complete control
# [10] = Preemergence, Rate 125 g/ha, 0 is no effect, 10 is complete control
# [11] = Preemergence, scale of 0 to 10 where 0 is no effect and 10 is complete control
# [12] = Postemergence, scale 0 to 10, 0 is no effect, 10 is complete control
# [13] = Postemergence (flood test species), Rate 125 g/ha, scale of 0 to 10 where 0 is no effect and 10 is complete control
# [14] = Rate 62 g/ha, Postemergence section, flood test species, scale of 0 to 10 where 0 is no effect and 10 is complete control
# [15] = Rate 250 g/ha, Postemergence (flood test), scale 0 to 10, 0 is no effect, 10 is complete control
# [16] = Rate 250 g/ha, headed Pre-emergence (flood test species), scale 0 to 10 (0 no effect, 10 complete control)
# [17] = Rate 500 g/ha, headed Pre-emergence (flood test species), scale 0 to 10 (0 no effect, 10 complete control)
# [18] = Rate 500 g/ha, listed under Postemergence (flood test species), scale 0 to 10, 0 no effect, 10 complete control
# [19] = Rate 1000 g/ha, Pre-emergence (as headed), scale 0 to 10
# [20] = Rate 2000 g/ha, Pre-emergence (as headed), scale 0 to 10
compound,measurement,setting,value
Cc1nn(C)c(Cl)c1-n1c(=O)on(C(=O)N(c2ccccc2)C(C)C)c1=O [Compound 121],Bedstraw plant response rating,bedstraw; [1],0
same,"Plant response rating, Bedstraw",bedstraw; [2],0
same,"Plant response rating, Bedstraw",bedstraw; [3],2
same,Bedstraw plant response rating,bedstraw; [4],5
same,Bedstraw plant response rating,bedstraw; [5],6
same,Blackgrass plant response rating,blackgrass; [6],0
same,Blackgrass plant response rating,blackgrass; [7],2
same,Blackgrass plant response rating,blackgrass; [1],0
same,"Plant response rating, Blackgrass",blackgrass; [2],4
same,"Plant response rating, Blackgrass",blackgrass; [3],7
same,Blackgrass plant response rating,blackgrass; [4],9
same,Blackgrass plant response rating,blackgrass; [8],0
same,Blackgrass plant response rating,blackgrass; [5],6
same,B. signalgrass plant response rating,"surinam grass; Postemergence, Rate 62 g/ha, scale 0 to 10, 0 is no effect, 10 is complete control",0
same,B. signalgrass plant response rating,surinam grass; [6],0
same,B. signalgrass plant response rating,surinam grass; [7],3
same,B. signalgrass plant response rating,surinam grass; [1],0
same,"Plant response rating, B. signalgrass",surinam grass; [2],4
same,"Plant response rating, B. signalgrass",surinam grass; [3],8
same,B. signalgrass plant response rating,surinam grass; [4],9
same,B. signalgrass plant response rating,"surinam grass; Rate 500 g/ha, Postemergence, scale of 0 to 10 where 0 is no effect and 10 is complete control",3
same,Corn plant response rating,corn; [6],0
same,Corn plant response rating,corn; [7],0
same,Corn plant response rating,corn; [1],0
same,"Plant response rating, Corn",corn; [2],0
same,"Plant response rating, Corn",corn; [3],0
same,Corn plant response rating,corn; [4],0
same,Corn plant response rating,corn; [8],0
same,Corn plant response rating,corn; [5],0
same,Crabgrass plant response rating,crabgrass; [6],6
same,Crabgrass plant response rating,crabgrass; [7],9
same,Crabgrass plant response rating,crabgrass; [1],2
same,"Plant response rating, Crabgrass",crabgrass; [2],7
same,"Plant response rating, Crabgrass",crabgrass; [3],8
same,Crabgrass plant response rating,crabgrass; [4],9
same,Crabgrass plant response rating,crabgrass; [8],4
same,Crabgrass plant response rating,crabgrass; [5],9
same,Giant foxtail plant response rating,giant foxtail; [6],1
same,Giant foxtail plant response rating,giant foxtail; [7],7
same,Giant foxtail plant response rating,giant foxtail; [1],8
same,"Plant response rating, Giant foxtail",giant foxtail; [2],8
same,"Plant response rating, Giant foxtail",giant foxtail; [3],8
same,Giant foxtail plant response rating,giant foxtail; [4],10
same,Giant foxtail plant response rating,giant foxtail; [8],1
same,Giant foxtail plant response rating,giant foxtail; [5],8
same,Morningglory plant response rating,morningglory; [6],6
same,Morningglory plant response rating,morningglory; [7],6
same,Morningglory plant response rating,morningglory; [1],0
same,"Plant response rating, Morningglory",morningglory; [2],0
same,"Plant response rating, Morningglory",morningglory; [3],0
same,Morningglory plant response rating,morningglory; [4],0
same,Morningglory plant response rating,morningglory; [8],5
same,Morningglory plant response rating,morningglory; [5],9
same,Redroot pigweed plant response rating,pigweed; [6],2
same,Redroot pigweed plant response rating,pigweed; [1],4
same,"Plant response rating, Redroot pigweed",pigweed; [2],7
same,"Plant response rating, Redroot pigweed",pigweed; [3],8
same,Redroot pigweed plant response rating,pigweed; [4],8
same,Redroot pigweed plant response rating,pigweed; [8],2
same,"Plant response rating, Redroot pigweed",pigweed; [9],3
same,Redroot pigweed plant response rating,pigweed; [5],5
same,Soybean plant response rating,soybean; [6],5
same,Soybean plant response rating,soybean; [1],0
same,"Plant response rating, Soybean",soybean; [2],0
same,"Plant response rating, Soybean",soybean; [3],0
same,Soybean plant response rating,soybean; [4],0
same,Soybean plant response rating,soybean; [8],5
same,"Plant response rating, Soybean",soybean; [9],6
same,Soybean plant response rating,soybean; [5],6
same,Velvetleaf plant response rating,velvetleaf; [6],0
same,Velvetleaf plant response rating,velvetleaf; [1],0
same,Velvetleaf plant response rating (0 to 10 scale),velvetleaf; [10],0
same,"Plant response rating, Velvetleaf",velvetleaf; [11],0
same,Velvetleaf plant response rating,velvetleaf; [4],0
same,Velvetleaf plant response rating,velvetleaf; [8],0
same,"Plant response rating, Velvetleaf",velvetleaf; [12],4
same,Velvetleaf plant response rating,velvetleaf; [5],4
same,Wheat plant response rating,wheat; [6],0
same,Wheat plant response rating,wheat; [1],0
same,Wheat plant response rating (0 to 10 scale),wheat; [10],0
same,"Plant response rating, Wheat",wheat; [11],0
same,Wheat plant response rating,wheat; [4],3
same,Wheat plant response rating,wheat; [8],0
same,"Plant response rating, Wheat",wheat; [12],0
same,Wheat plant response rating,wheat; [5],0
same,Wild oats plant response rating,wild oat; [6],0
same,Wild oats plant response rating,wild oat; [1],0
same,Wild oats plant response rating (0 to 10 scale),wild oat; [10],0
same,"Plant response rating, Wild oats",wild oat; [11],5
same,Wild oats plant response rating,wild oat; [4],6
same,Wild oats plant response rating,wild oat; [8],0
same,"Plant response rating, Wild oats",wild oat; [12],0
same,Wild oats plant response rating,wild oat; [5],0
same,Nutsedge plant response rating,purple nutsedge; [6],0
same,Nutsedge plant response rating,purple nutsedge; [7],0
same,Nutsedge plant response rating,purple nutsedge; [1],0
same,"Plant response rating, Nutsedge",purple nutsedge; [2],0
same,"Plant response rating, Nutsedge",purple nutsedge; [3],0
same,Nutsedge plant response rating,purple nutsedge; [4],0
same,Nutsedge plant response rating,purple nutsedge; [8],0
same,Nutsedge plant response rating,purple nutsedge; [5],0
same,Rice plant response rating,rice; [13],0
same,Rice plant response rating,rice; [14],0
same,"Plant response rating, Rice",rice; [15],0
same,Rice plant response rating,rice; [16],0
same,"Plant response rating, Rice",rice; [17],0
same,Rice plant response rating,rice; [18],0
same,Rice plant response rating,rice; [19],3
same,Rice plant response rating,rice; [20],5
same,S. Flatsedge plant response rating,smallflower flatsedge; [13],5
same,S. Flatsedge plant response rating,"smallflower flatsedge; Pre-emergence, Rate 1000 g/ha, scale 0 to 10 (0 no effect, 10 complete control)",9
same,S. Flatsedge plant response rating,smallflower flatsedge; [14],3
same,"Plant response rating, S. Flatsedge",smallflower flatsedge; [15],5
same,S. Flatsedge plant response rating,smallflower flatsedge; [16],0
same,"Plant response rating, S. Flatsedge",smallflower flatsedge; [17],3
same,S. Flatsedge plant response rating,smallflower flatsedge; [18],6
same,S. Flatsedge plant response rating,smallflower flatsedge; [20],9
same,Ducksalad plant response rating,duck salad; [13],0
same,Ducksalad plant response rating,duck salad; [14],0
same,Ducksalad plant response rating,duck salad; [16],0
same,"Plant response rating, Ducksalad",duck salad; [17],0
same,Ducksalad plant response rating,duck salad; [18],0
same,Ducksalad plant response rating,duck salad; [19],0
same,Ducksalad plant response rating,duck salad; [20],0
same,Ducksalad plant response rating,"duck salad; flood test, listed under Postemergence, Rate 250 g/ha, scale 0 to 10, 0 no effect, 10 complete control",0
